How the values were obtained:
malaria mosquito P1 PR = experiment: Electrophysiological response to 200 pM adenosine with PR antagonist admixed; type: cell-based, Anopheles gambiae
Method: (§1) The tip recording method was used to record action potentials (spikes) from sensory cells in sensilla on A. gambiae labellum lobes.
Sensilla were exposed to test compounds and PR antagonists for ca. 2-4 s and spikes were counted in the first 2 s of recordings. Up to 4 test compounds were tested on a sensillum to evaluate potential agonists, each presented at 200 pM. To study responses as a function of dose for agonists ATP, adenosine, AMP, AMP-CPP and ATP+adenosine, up to 7 recordings were made at increasing doses of agonist from the same sensillum. Unless otherwise stated, recordings were made throughout from 4 to 16 sensilla from individual 4-6-day-old females per dose of agonist, antagonist and metal ion modulator. For example, a response curve established over 6 doses of an antagonist using 8 sensilla per dose involved recording from a sensillum of 48 separate mosquitoes. A given dose of a PR antagonist or metal ion modulator was only presented once to a sensillum. Two-second recordings were imported as ASCII files into DataView software for analysis of spike amplitude. […]
Pairwise comparisons of A. gambiae electrophysiological (EP) responses to ATP and adenosine alone and combined with a given dose of PR antagonist, EP responses to ATP alone and combined with a given dose of a metal modulator, and EP responses to ATP prior to and after exposure of a sensillum to a given dose of a PR antagonist were made with a one-tailed Wilcoxon signed-rank test for data showing a non-normal distribution, with a paired Student's t-test for normally distributed data showing homogeneous variance and with a Welch's t-test for normally distributed data showing non-homogeneous variance. […] Percent feeding inhibition induced by PR antagonists in A. stephensi was calculated using Abbott's formula.

A. gambiae = experiment: Membrane feeding assay, A. gambiae; type: in vivo, Anopheles gambiae; settings: for effect on feeding on solution containing ATP, in words: 20 μM ATP, CPT at 10 μM
Method: (§2) Experiments with A. gambiae and A. stephensi were made in a climate chamber at 28° C. and 80% RH during the last 6 hours of scotophase. As a sugar meal can interfere with the blood meal by reducing the number of females that feed, the sucrose solution supplied in rearing cages to mosquitoes employed for feeding experiments was reduced to 5%. […] The 5% sucrose solution was presented to mosquitoes from emergence on four 1 cm diam. cotton dental rolls (Hartmann A G, Neuhausen, Switzerland) inserted in 10 ml upturned glass vials placed in holes at each corner of the rearing cage ceiling. Cotton rolls were turned daily in vials and renewed every two days. Mosquitoes were not fed blood and were deprived of sucrose 17 to 20 hours before experiments. Thirty min before a feeding experiment, between 10-25, 6-day-old females that responded to activation by human breath were removed with a mouth aspirator from the rearing cage wall and placed in polystyrol cylinders with the floor cut out (10 cm dm×15 cm high; Semadeni, Ostermundigen, Switzerland) that served as feeding cages. Each cage was covered with mosquito netting at one end and a soft polyurethane lid at the other.
(§3) Mosquitoes were fed for 30 min using a feeding system (Hemotek®, Hemotek Ltd, Blackburn, UK) consisting of 3.5 ml stainless steel reservoirs 37 mm in diameter covered with a 60-90 μm thick silicone-impregnated membrane (Kröber and Guerin, 2007 in “Feeding assays for hard ticks”, Trends in parasitology 23, 445-449; doi 10.1016/j.pt.2007.07.010). Feeding reservoirs reached a temperature of 37° C. within 10 min and were placed on the netting of feeding cages. Mosquitoes were activated using a 200 ms pulse of pure CO2 (volume 6.25 ml) from a pressurised cylinder (Carbagas, Switzerland) using a solenoid valve that caused the CO2 level in the feeding cage to rise to at least 1,500 ppm. Between 3 and 4 sets of 10 feeding cages held in a custom-built Ertacetal® POM frame were tested per day, depending of the number of female mosquitoes available from the colony.
(§4) All compounds were tested in a mosquito feeding solution (FS) consisting of 25 mM dextrose, 25 mM NaCl buffered with 8.93 mM NaHCO3 adjusted to pH 7.4. Feeding responses of A. gambiae and A. stephensi to ATP as a function of dose were tested with between 7 to 10 feeding cages per dose. Each feeding experiment with an antagonist systematically included a treatment containing the FS as negative control along with a treatment containing the FS with 20 pM ATP added as positive control for A. gambiae and with 160 pM ATP added as positive control for A. stephensi. These positive and negative controls permitted to monitor any effect of experimental day on feeding responses as a function of dose for antagonists that were recorded over several days. […] Four to 10 cages each with 10 to 29 mosquitoes were tested per antagonist dose. […] The number of feeding cages used to test other compounds and their mixtures as feeding stimulants or as feeding inhibitors is listed on Table 6. The percentage of fed mosquitoes was estimated by visual inspection of abdominal distention that is indicative of engorgement.
(§5) Pairwise comparisons of A. gambiae electrophysiological (EP) responses to ATP and adenosine alone and combined with a given dose of PR antagonist, EP responses to ATP alone and combined with a given dose of a metal modulator, and EP responses to ATP prior to and after exposure of a sensillum to a given dose of a PR antagonist were made with a one-tailed Wilcoxon signed-rank test for data showing a non-normal distribution, with a paired Student's t-test for normally distributed data showing homogeneous variance and with a Welch's t-test for normally distributed data showing non-homogeneous variance. […]

A. stephensi = experiment: Membrane feeding assay, A. stephensi; type: in vivo, Anopheles stephensi
Method: as §2, §3
as §4, with “with 20 pM ATP added as positive control for A. gambiae and with 160 pM ATP added as positive control for A. stephensi.” left out
as §5

[1] = system: A. gambiae mouthpart ATP-sensitive receptor; experiment: Electrophysiological response to 200 pM ATP with PR antagonist admixed; type: cell-based, Anopheles gambiae; settings: for ID95 in nM (±s.e.m.): increasing doses admixed to 200 pM ATP; for effect on EP response to ATP, in words: suramin at 1 nM; for ID50/ID95: block at maximum dose tested: maximum dose 1 μM, admixed to 200 pM ATP
Method: as §1
Sensilla were exposed to test compounds and PR antagonists for ca. 2-4 s and spikes were counted in the first 2 s of recordings. Up to 4 test compounds were tested on a sensillum to evaluate potential agonists, each presented at 200 pM. To study responses as a function of dose for agonists ATP, adenosine, AMP, AMP-CPP and ATP+adenosine, up to 7 recordings were made at increasing doses of agonist from the same sensillum. Unless otherwise stated, recordings were made throughout from 4 to 16 sensilla from individual 4-6-day-old females per dose of agonist, antagonist and metal ion modulator. For example, a response curve established over 6 doses of an antagonist using 8 sensilla per dose involved recording from a sensillum of 48 separate mosquitoes. A given dose of a PR antagonist or metal ion modulator was only presented once to a sensillum. Two-second recordings were imported as ASCII files into DataView software for analysis of spike amplitude. Differences in spike amplitude generated by stimulation of one 8v sensillum/female with 1 mM sucrose (n=294 spikes from 6 females) 200 pM adenosine (n=207 spikes from 7 females) and 200 pM ATP (n=192 spikes from 7 females) were compared by measuring the spike amplitude in mV between the highest point of depolarisation and the lowest point of hyperpolarisation.
Pairwise comparisons of A. gambiae electrophysiological (EP) responses to ATP and adenosine alone and combined with a given dose of PR antagonist, EP responses to ATP alone and combined with a given dose of a metal modulator, and EP responses to ATP prior to and after exposure of a sensillum to a given dose of a PR antagonist were made with a one-tailed Wilcoxon signed-rank test for data showing a non-normal distribution, with a paired Student's t-test for normally distributed data showing homogeneous variance and with a Welch's t-test for normally distributed data showing non-homogeneous variance. Effects on feeding of adding ATP, AMP-CPP, adenosine, ATP+adenosine, AMP and ADP-βS, CPT with ATP or adenosine, TMP with ATP+adenosine, TMP+CPT with ATP+adenosine to the FS for A. gambiae, and of adding PR antagonists with ATP to the FS for A. stephensi were compared using one-tailed Mann-Whitney U-test or Welch's t-test, depending on data distribution; Holm's FWEC was applied where treatment comparisons involved the same positive control. Percent feeding inhibition induced by PR antagonists in A. stephensi was calculated using Abbott's formula.
Dose-response models fitted to mosquito data were generated using the ‘drm’ command in the “drc” R package (version 2.5-12). Best fitting models (goodness of fit) and effects of dose of a compound were assessed using, respectively, ‘modelFit’ and ‘noEffect’ functions in the same R package. A 3-parameter logistic model (L3) was fitted to spike-counts recorded to increasing doses of adenosine, AMP, ATP and AMP-CPP. Spike numbers recorded in response to 200 pM ATP with increasing doses of PR antagonists added were analysed using a 4-parameter log-logistic model (LL.4) for A-317491 and spinorphin, using a 4-parameter Weibull model (W1.4) for PPADS, RB-2 and TMP, and using a 3-parameter log-logistic model (LL.3) for suramin. An L3 model was fitted to proportions of females feeding on increasing doses of ATP. Feeding rates on 20 μM ATP with increasing doses of a PR antagonist added were analysed using a 4-parameter log-logistic model (LL.4) with the median of the positive control (20 μM ATP) fixed as the upper asymptote. Response dynamics in 3-parameter models are related to the slope b, the upper asymptote, and inflexion point of the model e (the ED50 value), whereas 4 parameter models also include the lower asymptote parameter. […]

[2] = antagonist 1000 nM + 200 pM ATP

| Compound | effect on feeding on solution containing ATP, in words (A. gambiae) | Mean no. of spikes per 2 s (±s.e.m.), ATP + antagonist ([1]; antagonist 50 nM + 200 pM ATP) | ID95 in nM (±s.e.m.) [1] | effect on EP response to ATP, in words ([1]; 200 pM ATP) | % fed mosquitoes (mean ± s.e.m.), ATP + antagonist (A. gambiae; antagonist 20 μM + 20 μM ATP) | Mean no. of spikes per 2 s (±s.e.m.), ATP + antagonist [1, 2] | ID50/ID95: block at maximum dose tested [1] | further results |
| --- | --- | --- | --- | --- | --- | --- | --- | --- |
| Cn1c(=O)c2[nH]cnc2n(C)c1=O [Theophylline, 1,3-dimethylxanthine] |  |  |  |  |  |  |  | EP response, adenosine theophylline combination (malaria mosquito P1 PR; 1 μM theophylline + 200 pM adenosine): 17.63±4.48 spikes/2s |
| Cc1nc(/N=N/c2ccc(S(=O)(=O)O)cc2S(=O)(=O)O)c(COP(=O)(O)O)c(C=O)c1O [PPADS, pyridoxal phosphate-6-azophenyl-2′,4′-disulfonic acid] | inhibited feeding | 8.13 spikes per 2 s | 12.66 nM |  |  |  |  | % fed mosquitoes (mean ± s.e.m.), ATP + antagonist (A. gambiae; antagonist 100 μM + 20 μM ATP): 33.39%; % Fed females (mean ± s.e.m.) (A. stephensi; 800 μM, feeding solution with 160 μM ATP): 37.29 ± 3.75%; inhibition at 800 µM (A. stephensi; Anopheles stephensi, 800 μM, Abbott's formula): 48.9%; effect on feeding on solution containing ATP, in words (A. stephensi; doses as in Table 8): inhibited feeding |
| Cn1c(=O)c2[nH]c(C3CCCC3)nc2n(C)c1=O [CPT, 8-cyclopentyl-1,3-dimethylxanthine] | not |  |  | not |  |  |  | % Engorged mosquitoes (A. gambiae; 10 μM CPT + 20 μM ATP): 65.4 ± 10.2%; % Engorged mosquitoes (A. gambiae; 10 μM CPT + 1 mM Adenosine): 48.7 ± 7.0%; effect on feeding on adenosine, in words (A. gambiae; 10 μM CPT, 1 mM adenosine in feeding solution): significantly inhibited; effect on EP response to adenosine, in words (malaria mosquito P1 PR; 200 pM adenosine, suramin at 1 nM): inhibited; duration of inhibition of the response to adenosine (malaria mosquito P1 PR; adenosine presented again approximately 2 min after antagonist): at least 2 min |
| Cc1nc(N=Nc2ccc(C(=O)O)cc2)c(COP(=O)(O)O)c(C=O)c1O [MRS 2159, [2-[(4-carboxyphenyl)diazenyl]-4-formyl-6-methyl-5-oxidopyridin-3-yl]methyl phosphate] |  |  |  |  | 79.19% | 27.14 spikes per 2 s | No block (1 μM) | feeding inhibition at maximum dose tested (A. gambiae; maximum dose 20 μM, with 20 μM ATP): No feeding inhibition |
| Nc1c(S(=O)(=O)O)cc(Nc2ccc(Nc3nc(Cl)nc(Nc4cccc(S(=O)(=O)O)c4)n3)c(S(=O)(=O)O)c2)c2c1C(=O)c1ccccc1C2=O [RB-2, 1-amino-4-[[4-[[4-chloro-6-[[3 (or 4)-sulfophenyl]amino]-1,3,5-triazin-2-yl]amino]-3-sulfophenyl]amino]-9,10-dihydro-9,10-dioxo-2-anthracenesulfonic acid] | inhibited feeding | 12.83 spikes per 2 s | 113.02 nM | inhibited |  |  |  | % fed mosquitoes (mean ± s.e.m.), ATP + antagonist (A. gambiae; antagonist 0.1 μM + 20 μM ATP): 32.88%; persistent antagonism to ATP presented approximately 2 min later, in words ([1]; 200 pM ATP): not |
| Clc1cccc(-c2nnnn2Cc2cccnc2)c1Cl [A-438079, 3-[[5-(2,3-dichlorophenyl)tetrazol-1-yl]methyl]pyridine] |  |  |  |  | 48.65% | 22.57 spikes per 2 s | No block (1 μM) | % reduction in feeding (A. gambiae; 20 μM, with 20 μM ATP): (20 μM, 30.74%) |

— patent publication US20250057791A1, “PROTECTION AGAINST ARTHROPOD PARASITES WITH PURINERGIC RECEPTOR (OPR) ANTAGONISTS” (priority 2021, published 2025)
